How the values were obtained:
Type in all cases: functional
Mus musculus [1] = assay: Tested for skin toxicity in BALB/c mice at a significant dose of 2.00 mg/kg administered intraintradermally and involved concentric circular areas of ulceration
Mus musculus [2] = assay: Tested for skin toxicity in BALB/c mice administered intraintradermally and involved concentric circular areas of ulceration
P388 [3] = assay: Antileukemic activity against P-388 in mice at a dose of 37.5 mg/kg administered intraperitoneally after 5 day treatment; conditions: Mus musculus, P388, ip, 120 h, route intraperitoneal
Mus musculus [4] = assay: Tested for skin toxicity in BALB/c mice at a significant dose of 0.25 mg/kg administered intraintradermally and involved concentric circular areas of induration.
Mus musculus [5] = assay: Tested for percent average weekly weight change in mice at a significant dose of 80 mg/kg administered intraperitoneally after 5 days of treatment; conditions: route intraperitoneal
Mus musculus [6] = assay: Tested for high-dose toxicity in mice at a significant dose of 90 mg/kg administered intraperitoneally after 5 days of treatment; conditions: route intraperitoneal
RPMI-8226 [7] = assay: Effect on protein synthesis was determined by incorporation of radioligand into 8226 human myeloma cells at a concentration of 0.01 ug/mL
P388 [8] = assay: Antileukemic activity against P-388 in mice at a dose of 80 mg/kg administered intraperitoneally after 5 day treatment; conditions: Mus musculus, P388, ip, 120 h, route intraperitoneal
Mus musculus [9] = assay: Tested for skin toxicity in BALB/c mice at a significant dose of 1.25 mg/kg administered intraintradermally and involved concentric circular areas of induration.
Mus musculus [10] = assay: Tested for percent average weekly weight change in mice at a significant dose of 80 mg/kg administered intraperitoneally; conditions: route intraperitoneal
RPMI-8226 [11] = assay: Effect on protein synthesis was determined by incorporation of radioligand into 8226 human myeloma cells at a concentration of 10 ug/mL (*: >1 log cell kill)
RPMI-8226 [12] = assay: Effect on RNA synthesis was determined by incorporation of radioligand into 8226 human myeloma cells at a concentration of 10 ug/mL (*: >1 log cell kill)
L1210 [13] = assay: Effect on protein synthesis was determined by incorporation of radioligand into L1210 murine leukemia at a concentration of 0.01 ug/mL; conditions: Mus musculus
Mus musculus [14] = assay: Tested for high-dose toxicity in mice at a significant dose of 90 mg/kg administered intraperitoneally after 1 days of treatment; conditions: route intraperitoneal
RPMI-8226 [15] = assay: Effect on RNA synthesis was determined by incorporation of radioligand into 8226 human myeloma cells at a concentration of 0.3 ug/mL (*: >50% cell kill)
P388 [16] = assay: Antileukemic activity against P-388 in mice at a dose of 80 mg/kg administered intraperitoneally after 1 day treatment; conditions: Mus musculus, P388, ip, 24 h, route intraperitoneal
L1210 [17] = assay: Antileukemic activity against L-1210 cells in mice at a dose of 80 mg/kg administered intraperitoneally after 5 day treatment; conditions: Mus musculus, L1210, ip, 120 h, route intraperitoneal
Mus musculus [18] = assay: Tested for high-dose toxicity in mice at a significant dose of 100 mg/kg administered intraperitoneally after 5 days of treatment; conditions: route intraperitoneal
P388 [19] = assay: Antileukemic activity against P-388 in mice at a dose of 60 mg/kg administered intraperitoneally after 1 day treatment; conditions: Mus musculus, P388, ip, 24 h, route intraperitoneal
Mus musculus [20] = assay: Tested for percent average weekly weight change in mice at a significant dose of 45 mg/kg administered intraperitoneally after 5 days of treatment; conditions: route intraperitoneal
L1210 [21] = assay: Effect on DNA synthesis was determined by incorporation of radioligand into L1210 murine leukemia at a concentration of 0.3 ug/mL (*: >50% cell kill); conditions: Mus musculus
WiDr = assay: Tested in vitro for inhibitory activity of human tumor cell growth against WIDR colon tumor, by using clonogenic assays.; conditions: read-out: ID50 (the source's name)
Mus musculus [22] = assay: Tested for skin toxicity in BALB/c mice at a significant dose of 2.00 mg/kg administered intraintradermally and involved concentric circular areas of erythema
Mus musculus [23] = assay: Tested for skin toxicity in BALB/c mice at a significant dose of 2.5 mg/kg administered intraintradermally and involved concentric circular areas of induration.
RPMI-8226 [24] = assay: Effect on protein synthesis was determined by incorporation of radioligand into 8226 human myeloma cells at a concentration of 0.5 ug/mL. (*: >1 log cell kill)
L1210 [25] = assay: Effect on DNA synthesis was determined by incorporation of radioligand into L1210 murine leukemia at a concentration of 10 ug/mL (*: >1 log cell kill); conditions: Mus musculus
Mus musculus [26] = assay: Tested for high-dose toxicity in mice at a significant dose of 37.5 mg/kg administered intraperitoneally after 5 days of treatment; conditions: route intraperitoneal
L1210 [27] = assay: Antileukemic activity against L-1210 cells in mice at a dose of 60 mg/kg administered intraperitoneally after 5 day treatment; conditions: Mus musculus, L1210, ip, 120 h, route intraperitoneal
L1210 [28] = assay: Effect on protein synthesis was determined by incorporation of radioligand into L1210 murine leukemia at a concentration of 0.3 ug/mL (*: >50% cell kill); conditions: Mus musculus
L1210 [29] = assay: Effect on DNA synthesis was determined by incorporation of radioligand into L1210 murine leukemia at a concentration of 0.5 ug/mL. (*: >1 log cell kill); conditions: Mus musculus
Mus musculus [30] = assay: Tested for skin toxicity in BALB/c mice at a significant dose of 0.25 mg/kg administered intraintradermally and involved concentric circular areas of ulceration
Mus musculus [31] = assay: Tested for percent average weekly weight change in mice at a significant dose of 37.5 mg/kg administered intraperitoneally after 5 days of treatment; conditions: route intraperitoneal
Mus musculus [32] = assay: Tested for percent average weekly weight change in mice at a significant dose of 100 mg/kg administered intraperitoneally in mice after 5 days of treatment; conditions: route intraperitoneal
Mus musculus [33] = assay: Tested for skin toxicity in BALB/c mice at a significant dose of 0.75 mg/kg administered intraintradermally and involved concentric circular areas of induration.
RPMI-8226 [34] = assay: Effect on DNA synthesis was determined by incorporation of radioligand into 8226 human myeloma cells at a concentration of 0.5 ug/mL. (*: >1 log cell kill)
RPMI-8226 [35] = assay: Effect on RNA synthesis was determined by incorporation of radioligand into 8226 human myeloma cells at a concentration of 0.5 ug/mL. (*: >1 log cell kill)
RPMI-8226 [36] = assay: Effect on DNA synthesis was determined by incorporation of radioligand into 8226 human myeloma cells at a concentration of 0.01 ug/mL
Mus musculus [37] = assay: Tested for skin toxicity in BALB/c mice at a significant dose of 1.25 mg/kg administered intraintradermally and involved concentric circular areas of erythema
L1210 [38] = assay: Effect on protein synthesis was determined by incorporation of radioligand into L1210 murine leukemia at a concentration of 0.5 ug/mL. (*: >1 log cell kill); conditions: Mus musculus
L1210 [39] = assay: Antileukemic activity against L-1210 cells in mice at a dose of 90 mg/kg administered intraperitoneally after 1 day treatment; conditions: Mus musculus, L1210, ip, 24 h, route intraperitoneal

In the case of `CN(C)CCNCc1c2ccccc2c(CNCCN(C)C)c2ccccc12`, the “Extent of skin lesions” value (Mus musculus [1]) is reported as 2.6 cm**2, the “Extent of skin lesions” value (Mus musculus [2]) is reported as 1.9 cm**2 and the ILS at 37.5 mg/kg (P388 [3]) is reported as 0%. The “Extent of skin lesions” value (Mus musculus [4]) was 0.7 cm**2, the “Average weekly weight change” value (Mus musculus [5]) was -10% and the Lethality (Mus musculus [6]) was 20%. The “Median day of death” value (Mus musculus [6]) was 3, the inhibition at 0.01 µg/mL (RPMI-8226 [7]) was 67.5% and the ILS at 80 mg/kg (P388 [8]) was 0%. The “Extent of skin lesions” value (Mus musculus [9]) was 4.3 cm**2, the Lethality (Mus musculus [10]) was -3% and the inhibition at 10 µg/mL (RPMI-8226 [11]) was 17.6%. The inhibition at 10 µg/mL (RPMI-8226 [12]) was 91.4%, the inhibition at 0.01 µg/mL (L1210 [13]) was 0% and the Lethality (Mus musculus [14]) was 20%. For the same compound, the “Median day of death” value (Mus musculus [14]) was 10, the inhibition at 0.3 µg/mL (RPMI-8226 [15]) was 0% and the ILS at 80 mg/kg (P388 [16]) was 36%. For the same compound, the ILS at 80 mg/kg (L1210 [17]) was 15%, the Lethality (Mus musculus [18]) was 80% and the “Median day of death” value (Mus musculus [18]) was 8. For the same compound, the ILS at 60 mg/kg (P388 [19]) was 11%, the “Average weekly weight change” value (Mus musculus [20]) was -12% and the inhibition at 0.3 µg/mL (L1210 [21]) was 0%. The IC50 (WiDr) was 180 nM, the “Extent of skin lesions” value (Mus musculus [22]) was 3.1 cm**2 and the “Extent of skin lesions” value (Mus musculus [23]) was 6.1 cm**2. It also gave an inhibition at 0.5 µg/mL (RPMI-8226 [24]) of 63.5%, an inhibition at 10 µg/mL (L1210 [25]) of 75.7% and a Lethality (Mus musculus [26]) of 20%. The “Median day of death” value (Mus musculus [26]) was 2, the ILS at 60 mg/kg (L1210 [27]) was 27% and the inhibition at 0.3 µg/mL (L1210 [28]) was 9.8%. For the same compound, the inhibition at 0.5 µg/mL (L1210 [29]) was 5.8%, the “Extent of skin lesions” value (Mus musculus [30]) was 0.2 cm**2 and the “Average weekly weight change” value (Mus musculus [31]) was -7%. The “Average weekly weight change” value (Mus musculus [32]) was -15%, the “Extent of skin lesions” value (Mus musculus [33]) was 1.7 cm**2 and the inhibition at 0.5 µg/mL (RPMI-8226 [34]) was 24.3%. For the same compound, the inhibition at 0.5 µg/mL (RPMI-8226 [35]) was 7.3%, the inhibition at 0.01 µg/mL (RPMI-8226 [36]) was 0% and the “Extent of skin lesions” value (Mus musculus [37]) was 2.2 cm**2. The inhibition at 0.5 µg/mL (L1210 [38]) was 21.8% and the ILS at 90 mg/kg (L1210 [39]) was 3%.

Reference: ChEMBL document CHEMBL1123796, “New antitumor agents containing the anthracene nucleus” (1987)
